Laboratory results from the supplement of paper PMC10949913.

Experiments:
Assay in all cases: area under concentration-response curve (viability) (AUC (a.u.)); higher = less active
Conditions in all cases: 48 h
[1] = test system: CU-ACC1
Outline: (§1)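 Library compounds were dispensed at 11 concentrations (23 nL each) onto three adrenocortical carcinoma cell lines in 1,536-well plates. Luminescence was recorded after 48 h using CellTiter-Glo, and signals were normalised per plate to vehicle and empty-well controls. Fitted concentration-response curves of inhibitory or non-responding classes only supplied the AC50 and area under the curve.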

[2] = test system: NCI-H295R
Outline: as §1

[3] = test system: CU-ACC2
Outline: as §1

Row | SMILES | area under concentration-response curve [1] | area under concentration-response curve [2] | area under concentration-response curve [3]
1 | C[C@]12CCC3[C@@H](CC[C@H]4NC(=O)\C=C/[C@]34C)[C@@H]1CC[C@@H]2C(=O)NC5=CC(=CC=C5C(F)(F)F)C(F)(F)F (stereo partly specified) | 557 | 578 | 645
2 | CN(C)c1ccc(-c2nc3c(N4CCN(CC(=O)Nc5nccs5)CC4)c(Cl)cnc3[nH]2)cc1 | 618 | 600 | 658
3 | CC(=O)O[C@@]12CO[C@@H]1C[C@H](O)[C@]3(C)[C@@H]2[C@H](OC(=O)C4=CC=CC=C4)[C@]5(O)C[C@H](O)/C(=C(/[C@@H](O)C3=O)C5(C)C)C | 507 | 491 | 539
4 | Clc1ccccc1CN1CCc2sccc2C1 | 510 | 543 | 617
5 | Cc1ncc([N+](=O)[O-])n1CC(C)O (stereo unspecified) | 554 | 566 | 644
6 | CC(=O)OCCN1C(=O)c2c(C)nc3ccc([S+](=O)([O-])N4CCOCC4)cc3c2C1=O | 547 | 581 | 653
7 | COc1ccc(CC2SC(=O)NC2=O)cc1C(=O)NCc1ccc(C(F)(F)F)cc1 (stereo unspecified) | 570 | 585 | 645
8 | Oc1ccc(OCc2ccccc2)cc1 | 378 | 417 | 353
9 | O=c1oc2cc(O)ccc2s1 | 502 | 503 | 482
10 | Cc1nc(NC(=O)N2CCC[C@H]2C(N)=O)sc1-c1csc(C(C)(C)C)n1 | 414 | 377 | 445
11 | O=C(C1CCCCC1)N1CC(=O)N2CCc3ccccc3C2C1 (stereo unspecified) | 555 | 544 | 631
12 | C[C@]12COC(=O)C[C@@H]1CC[C@@H]1[C@@H]2CC[C@@]2(C)[C@H]1CC[C@]2(C)O | 448 | 447 | 482
13 | Cc1ccccc1N1C(=O)c2cc([S+](N)(=O)[O-])c(Cl)cc2NC1C (stereo unspecified) | 495 | 512 | 599
14 | COCCCN1CCC(NC(=O)c2cc(Cl)c(N)c3c2OCC3)CC1 | 562 | 565 | 549
15 | CC(C)c1cc(C(C)C)c(CC(=O)N[S+](=O)([O-])Oc2c(C(C)C)cccc2C(C)C)c(C(C)C)c1 | 456 | 480 | 454
16 | CC1(C)CC[C@@]2(CC[C@]3(C)\C(=C/C[C@@H]4[C@@]5(C)C[C@@H](O)[C@H](O)C(C)(C)[C@@H]5CC[C@@]34C)[C@@H]2C1)C(O)=O | 478 | 531 | 574
17 | C[C@]\12CC[C@H](O)CC1=C/CC3C2CC[C@@]\4(C)C3C\C=C4[N]5C=NC6=C5C=CC=C6 (stereo partly specified) | 540 | 548 | 516
18 | C[C@H]1C[C@@H](n2c(Nc3ccc(OC(F)(F)F)cc3)nc3cc(CCC(=O)O)ccc32)CC(C)(C)C1 | 424 | 485 | 405
19 | Cc1c(NC(=O)c2cc(C(N)=O)nc3cc(F)ccc23)c(C(F)(F)F)nn1Cc1ccc(C(C)(C)C)cc1 | 506 | 533 | 589
20 | OC(Cn1cncn1)(Cn1cncn1)c1ccc(F)cc1F | 466 | 514 | 546
21 | Cn1c(COP(=O)(NCCBr)NCCBr)cnc1[N+](=O)[O-] | 394 | 514 | 575
22 | Cc1[nH]nc(C(F)(F)F)c1Cc1sc2c(c1C(=O)N1C[C@](C)(O)CO1)c(=O)n(C)c(=O)n2C(C)C | 431 | 509 | 552
23 | Cc1cc(C)cc(Oc2ccc(CNC(=O)[C@H](C)N)cc2C)c1 | 478 | 509 | 559
24 | C=C(C)[C@@H]1CC[C@]2(C)CC[C@]3(C)[C@H](CC[C@@H]4[C@@]5(C)CC[C@H](O)C(C)(C)[C@@H]5CC[C@]43C)[C@@H]12 | 484 | 551 | 582

Row | SMILES | area under concentration-response curve [1] | area under concentration-response curve [2] | area under concentration-response curve [3]
25 | CC1(C)O[C@@H]2C[C@H]3[C@@H]4C[C@H](F)\C5=C\C(=O)\C=C/[C@]5(C)[C@H]4[C@@H](O)C[C@]3(C)[C@@]2(O1)C(=O)CO | 515 | 588 | 622
26 | Oc1ccc(C2CNCCc3c2cc(O)c(O)c3Cl)cc1 (stereo unspecified) | 468 | 524 | 538
27 | Cn1c(=O)c2c(ncn2C)n(C)c1=O | 479 | 498 | 533
28 | COc1ccc(CNC(=O)c2cc(-c3cncc(Cl)c3)cnc2-c2ccccn2)nc1OC | 430 | 407 | 412
29 | CC(C)C[C@@H](N)[C@H](O)C(=O)N[C@H](C(=O)N[C@H](C(=O)N[C@@H](CC(=O)O)C(=O)O)C(C)C)C(C)C | 544 | 549 | 530
30 | CC(C)(C(=O)NCC(F)(F)C(F)(F)F)C(=O)N[C@@H]1C(=O)Nc2ccccc2-c2ccccc21 | 413 | 459 | 500
31 | c1cc(-c2sc(-c3ccncc3)c(-c3ccncc3)c2-c2ccncc2)ccn1 | 549 | 565 | 544
32 | [O-][S+]1(=O)/N=C(/NC2=CC(=CC=C2)NC(=O)CCl)C3=CC=CC=C13 | 446 | 528 | 557
33 | COC1=CC=C(Cl)C=C1\C2=C\C(=O)NC(=S)N2CC(N)=O | 448 | 556 | 580
34 | COc1cc([C@@H]2c3cc4c(cc3[C@@H](O)C3COC(=O)C32)OCO4)cc(OC)c1O (stereo partly specified) | 500 | 511 | 559
35 | NC(=O)c1cnccn1 | 346 | 382 | 301
36 | CC(=O)C1CCC2C3CC\C4=C\C(=O)CCC4(C)C3CCC12C (stereo unspecified) | 548 | 607 | 645
37 | Cc1c(Cn2c(C)nc3c(C(=O)O)cc(N4CCOCC4)cc32)cccc1C(F)(F)F | 444 | 519 | 524
38 | Cc1ccc(-c2nc(N)nc3c2nnn3Cc2cccc(CO[C@H]3CCOC3)n2)o1 | 520 | 561 | 569
39 | O=C(O)c1ccccc1-c1ccc(/C=c2\sc3nc4cc(Br)cnc4n3c2=O)o1 | 491 | 549 | 457
40 | Cc1ccccc1C(C(=O)NC1CCCCC1)N(C(=O)Cn1ccnc1C)c1cccc(F)c1 (stereo unspecified) | 519 | 539 | 593
41 | COc1ccc([S+](=O)([O-])N[C@@H](CNc2nc(C)nc(N3CCC(c4ccc5c(n4)NCCC5)CC3)c2C)C(=O)O)cc1 | 554 | 589 | 441
42 | CC1=CC2=C(O1)C(=C3OC(=O)\C=C(C)/C3=C2)C | 482 | 516 | 581
43 | NCC1(CC(=O)O)CCCCC1 | 315 | 412 | 403
44 | C[C@]12CC(=O)[C@H]3[C@@H](CC\C4=C\C(=O)\C=C/[C@]34C)[C@@H]1CC[C@]2(O)C(=O)CO | 547 | 580 | 652
45 | COC1=CC=C(C=C1)C(=O)C2CCN(CC2)CC(=O)N(CC3CC3)C\C4=N\C5=C(\COCC5)C(=O)N4 | 495 | 520 | 564
46 | O=C(CCc1ccc(O)cc1)c1c(O)cc(O)cc1O | 531 | 585 | 653
47 | CC(=O)OCC(=O)[C@@]12\N=C(C)/O[C@@H]1C[C@H]3[C@@H]4CCC/5=C/C(=O)/C=C\[C@]5(C)[C@H]4[C@@H](O)C[C@]23C | 483 | 514 | 581
